We go through 32 compounds from ChEMBL document CHEMBL4342407, “Thieno[2,3-d]pyrimidine as a promising scaffold in medicinal chemistry: Recent advances” (Bioorg Med Chem, 2019).

The test system of data set [1] is Rattus norvegicus. In words: Antiinflammatory activity in Wistar rat assessed as inhibition of cotton pellet-induced granuloma at 75 mg/kg, po administered daily for 7 days and measured on day 8 relative to control. In kind it is functional.
Data set [2] deals with Rattus norvegicus. In words: Antiinflammatory activity in Wistar rat model of Freund's adjuvant-induced arthritis assessed as inhibition of arthritis by measuring reduction in paw volume at 75 mg/kg, po administered once daily for 8 days starting from day 7 post Freund's adjuvant treatment and measured after 18 days by mercury plethysmography relative to control. In kind it is functional.

For data set [3], the system named is Rattus norvegicus. In words: Antiinflammatory activity in po dosed Wistar rat assessed as reduction in carrageenan-induced paw edema pretreated for 1 hr followed by carrageenan challenge and measured over 2 to 4 hrs post carrageenan challenge by plethysmography. In kind it is functional.
For data set [4], the system named is Mus musculus. In words: Antiinflammatory activity in Swiss mouse assessed as inhibition of TPA-induced ear edema at 1 mg/ear applied topically and measured 4 hrs post-TPA challenge relative to control. In kind it is functional.
The subject of data set [5] is Rattus norvegicus. In words: Anti-ulcer activity in Wistar albino rat assessed as reduction in pylorus ligation induced ulcer at 250 mg/kg, ip pretreated for 1 hr followed by pylorus ligation and measured at 4 hrs post ligation. It counts as functional.
The nature of data set [6]: Ulcerogenic activity in Wistar albino rat assessed as ulcer index at 250 mg/kg, ip pretreated for 1 hr followed by pylorus ligation and measured at 4 hrs post ligation. It counts as toxicity, organism-based. The conditions noted are these: in vivo.
In data set [7] the test system is Rattus norvegicus. In words: Antiinflammatory activity in Sprague-Dawley rat assessed as protection against carrageenan-induced edema at 40 mg/kg, po pretreated for 1 hr followed by carrageenan challenge and measured after 3 hrs by mercury plethysmometer relative to control. It counts as functional. For orientation: Carrageenan injected into the paw causes an acute inflammation.

The test system of data set [8] is MCF7. In words: Antiproliferative activity against human MCF7 by MTT assay. It counts as functional, cell-based. Background: Tetrazolium assays rely on reduction of a dye to a coloured formazan, in cell work by metabolically active cells.
The test system of data set [9] is HepG2. In words: Antiproliferative activity against human HepG2 cells by MTT assay. It counts as functional, cell-based.
Data set [10] deals with ECa-109 cell line. In words: Antiproliferative activity against human EC109 at 50 ug/ml after 48 hrs by MTT assay. The conditions noted are these: ECa-109, 48 h. In kind it is functional.
The test system of data set [11] is MGC-803. In words: Antiproliferative activity against human MGC803 at 50 ug/ml after 48 hrs by MTT assay. It counts as functional. The conditions noted are these: MGC-803, 48 h.
Data set [12] concerns HepG2. In words: Antiproliferative activity against human HepG2 at 50 ug/ml after 48 hrs by MTT assay. In kind it is functional. The conditions noted are these: HepG2, 48 h.
The test system of data set [13] is HEp-2. In words: Antiproliferative activity against human Hep2 after 24 hrs by MTT assay. It counts as functional, cell-based. The conditions noted are these: HEp-2, 24 h.
Data set [14] deals with HepG2. In words: Antiproliferative activity against human HepG2 after 24 hrs by MTT assay. The conditions noted are these: HepG2, 24 h. It counts as functional, cell-based.
In data set [15] the test system is HeLa. In words: Antiproliferative activity against human HeLa after 24 hrs by MTT assay. It counts as functional, cell-based.
Data set [16] deals with PC-3. In words: Antiproliferative activity against human PC3 after 24 hrs by MTT assay. In kind it is functional, cell-based. The conditions noted are these: PC-3, 24 h.
Data set [17] relates to MCF7. In words: Antiproliferative activity against human MCF7 after 24 hrs by MTT assay. It counts as functional, cell-based. The conditions noted are these: MCF7, 24 h.
Data set [18] has as its system Candida albicans. In words: […] activity against Candida albicans assessed as zone inhibition at 500 ug/ml by cup plate agar diffusion method. In kind it is functional. In general terms: Agar diffusion results depend on both activity and mobility in agar.

Consider `CC(=O)NN1C(S)=Nc2sc3c(c2C1c1ccccc1)CCCC3` (configuration not stated), for which the results for the inhibition in vivo at 75 mg/kg in [1] and in data set [2] were 39.9% and 28.9%, respectively. For the same compound, the ED50 in data set [3] was determined as 66.7 mg/kg. The “inhibition (INH)” value in data set [4] is 35.1%.

For `C[C@]12CC[C@H]3[C@@H](CC=C4CC(O)CC[C@@]43C)[C@@H]1CC[C@@H]2c1csc(N)c1-c1nnc(S)n1-c1ccccc1` (some centres not stated), in [5], the inhibition in vivo at 250 mg/kg is 64.2%. Moreover, the UI in [6] amounted to 1.29. Moreover, the Activity in data set [7] is listed as 96%.

In the case of `Fc1cccc(CNc2nc(C(F)(F)F)nc3sc4c(c23)CCC4)c1`, the IC50 worked out at 5.18 µM in [8] and 7.31 µM in data set [9].

For `O=C(NN1C(S)=Nc2sc3c(c2C1c1ccccc1)CCCC3)c1ccccc1` (configuration not stated), the values for the inhibition in vivo at 75 mg/kg in data set [1] and in [2] were 41.8% and 25.6%, respectively. Further, the ED50 in data set [3] turned out to be 62.7 mg/kg. Besides, in [4], the “inhibition (INH)” value was 57.9%.

In the case of `CCOP(=O)(OCC)C(Nn1c(C)nc2sc(CC)cc2c1=O)c1ccc([N+](=O)[O-])cc1` (configuration not stated), the results for the inhibition at 50 µg/mL in data set [10], in data set [11] and in data set [12] were 54%, 59.8% and 61.1%, respectively.

For `Cc1c(C(=O)/C=C/c2cccs2)sc2nc(S)n(-c3ccccc3)c(=O)c12`, the IC50 is 25.7 µM in data set [13]; 26.4 µM in data set [14]; 15.4 µM in data set [15]; 18.4 µM in data set [16]; 24 µM in data set [17].

As for `Cc1ccccc1CNc1nc(C(F)(F)F)nc2sc3c(c12)CCC3`, the results for the IC50 in data set [8] and in [9] were 83.6 µM and > 100 µM, respectively.

As to `CN1C(C(=O)Nc2ccccn2)=C(O)c2ccccc2S1(=O)=O` [PIROXICAM], the inhibition in vivo at 75 mg/kg turned out to be 67.9% in data set [1] and 51.6% in [2]. Besides, the ED50 in data set [3] amounted to 7.8 mg/kg. Besides, the “inhibition (INH)” value in data set [4] was 12.2%.

Take `CCc1cc2c(=O)n(/N=C/c3ccccc3)c(C)nc2s1`: the inhibition at 50 µg/mL in data set [10] amounted to 51.4%; in data set [11], 74.6%; in data set [12], 57%.

Turning to `Cc1c(C(=O)/C=C/c2cc(Br)cs2)sc2nc(S)n(-c3ccccc3)c(=O)c12`, the IC50 came out at 31.3 µM in data set [13]; 30.1 µM in data set [14]; 17.8 µM in data set [15]; 27.7 µM in [16]; 25.8 µM in [17].

In the case of `CCc1cc2c(=O)n(NC(c3ccc([N+](=O)[O-])cc3)P(=O)(OC(C)C)OC(C)C)c(C)nc2s1` (configuration not stated), the inhibition at 50 µg/mL in data set [10] came out at 58.5%; in data set [11] it was 84.3%; in data set [12], 58.1%.

Regarding `C[C@]12CC[C@H]3[C@@H](CC=C4C[C@H](O)CC[C@@]43C)[C@@H]1CC[C@@H]2c1csc(N)c1-c1nnc(SCC(=O)c2ccccc2)n1-c1ccccc1`, in [5], the inhibition in vivo at 250 mg/kg was 76.9%. The UI in data set [6] turned out to be 0.83. For the same compound, the Activity in data set [7] came out at 99%.

As to `FC(F)(F)c1nc(NCc2ccccc2)c2c3c(sc2n1)CCC3`, the concentration for half-maximal inhibition (IC50) in [8] amounted to 11.8 µM; in data set [9], 13.5 µM.

`COc1ccc(C2=NC3SC=C([C@H]4CC[C@H]5[C@@H]6CC=C7CC(O)CC[C@]7(C)[C@H]6CC[C@]45C)C3C(=O)N2N)cc1` (some centres not stated): in data set [5], the inhibition in vivo at 250 mg/kg was 91.9%. Further, the UI in data set [6] was found to be 0.29. In addition, in data set [7], the Activity is 92%.

Consider `C[C@]12CC[C@H]3[C@@H](CC=C4CC(O)CC[C@@]43C)[C@@H]1CC[C@@H]2c1csc(N)c1C(=O)NNC(=S)Nc1ccccc1` (some centres not stated), for which the inhibition in vivo at 250 mg/kg in [5] turned out to be 41.4%. In addition, the UI in data set [6] is on record as 2.11. In [7], the Activity was 81%.

For `Nc1c(C(=O)Nc2ccccc2)sc2nc(N3CCOCC3)nc(-c3ccccc3)c12`, the IC50 is 40.7 µM in data set [15] and 52.6 µM in data set [17].

As for `C[C@]12CC[C@H]3[C@@H](CC=C4CC(O)CC[C@@]43C)[C@@H]1CC[C@@H]2C1=CSC2N=CN(N)C(=O)C12` (some centres not stated), in [5], the inhibition in vivo at 250 mg/kg amounted to 71.7%. In addition, the UI in [6] turned out to be 1.02. The Activity in data set [7] is given as 24%.

As to `CC(C)Cc1ccc(C(C)C(=O)O)cc1` (configuration not stated) [IBUPROFEN], in data set [1], the inhibition in vivo at 75 mg/kg turned out to be 44.6%. The ED50 in [3] came out at 19.7 mg/kg. Besides, the “inhibition (INH)” value in [4] was found to be 40.2%.

As to `FC(F)(F)c1nc(NCc2ccc(Cl)cc2)c2c3c(sc2n1)CCC3`, the IC50 in data set [8] is 13.8 µM; in data set [9], 8.63 µM.

As to `C[C@]12CC[C@H]3[C@@H](CC=C4CC(O)CC[C@@]43C)[C@@H]1CC[C@@H]2c1csc(N)c1C(=O)NN` (some centres not stated), the inhibition in vivo at 250 mg/kg in data set [5] came out at 82.7%. For the same compound, the UI in [6] is given as 0.62. Besides, the Activity in [7] is 87%.

Take `Nc1c(C(=O)Nc2ccc(I)cc2)sc2nc(N3CCOCC3)nc(-c3ccccc3)c12`: the IC50 was 60.8 µM in data set [15] and 42.8 µM in data set [17].

In the case of `CC(=C(C#N)C(=O)NN)[C@H]1CC[C@H]2[C@@H]3CC=C4CC(O)CC[C@]4(C)[C@H]3CC[C@]12C` (some centres not stated), in data set [5], the inhibition in vivo at 250 mg/kg was 41.4%. Besides, the UI in data set [6] was determined as 2.11. For the same compound, the Activity in data set [7] was 90%.

With `CC(=O)O[C@H]1C(=O)[C@@]2(C)[C@H]([C@H](OC(=O)c3ccccc3)[C@]3(O)C[C@H](OC(=O)[C@H](O)[C@@H](NC(=O)c4ccccc4)c4ccccc4)C(C)=C1C3(C)C)[C@]1(OC(C)=O)CO[C@@H]1C[C@@H]2O` [PACLITAXEL], the IC50 came to 45.8 µM in [15] and 40.4 µM in data set [17].

Regarding `COc1ccccc1CNc1nc(C(F)(F)F)nc2sc3c(c12)CCC3`, the IC50 in data set [8] and in data set [9] was > 100 µM each time.

Consider `CSC1=[N+](N)C(c2ccccc2)c2c(sc3c2CCCC3)N1.[I-]` (configuration not stated), for which the inhibition in vivo at 75 mg/kg was 29.9% in [1] and 10% in [2]. Besides, in data set [3], the ED50 turned out to be 72.5 mg/kg. In addition, in [4], the “inhibition (INH)” value is on record as 20.8%.

Consider `COc1ccc(/C=C/C(=O)c2sc3nc(S)n(-c4ccccc4)c(=O)c3c2C)cc1`, for which the 50% inhibitory concentration (IC50) stood at 39.5 µM in [13]; 32.8 µM in data set [14]; 22.7 µM in [15]; 28.9 µM in [16]; 28.9 µM in data set [17].

In [13], `COc1cccc2c1C(=O)c1c(O)c3c(c(O)c1C2=O)C[C@@](O)(C(=O)CO)C[C@@H]3O[C@H]1C[C@H](N)[C@H](O)[C@H](C)O1` [DOXORUBICIN] displayed an IC50 of 6.32 µM.

On to NYSTATIN, for which, in data set [18], the inhibition zone (IZ) was found to be 20.8 mm.

For the compound `Nc1c(C(=O)Nc2ccc(Cl)cc2)sc2nc(N3CCOCC3)nc(-c3ccccc3)c12`, the figures for the half-maximal inhibitory concentration (IC50) in data set [15] and in data set [17] were 50 µM and 18.9 µM, respectively.

Consider `CCOP(=O)(OCC)C(Nn1c(C)nc2sc(CC)cc2c1=O)c1ccccc1` (configuration not stated), for which the inhibition at 50 µg/mL in data set [10] is 66.3%; in [11] it was 50.3%; in data set [12] it was 66%.

For `COc1ccc(NC(=O)c2sc3nc(N4CCOCC4)nc(-c4ccccc4)c3c2N)cc1`, the IC50 was 61.9 µM in [15] and 27.8 µM in data set [17].

Consider `CCc1cc2c(=O)n(NC(c3cccc([N+](=O)[O-])c3)P(=O)(OC(C)C)OC(C)C)c(C)nc2s1` (configuration not stated), for which the inhibition at 50 µg/mL in data set [10] turned out to be 45.3%; in data set [11], 63.6%; in data set [12], 90.8%.

The term inhibition in vivo denotes the drop in the measured response relative to a control, in per cent. In general, ED50 refers to the midpoint of the dose-response relation. A word on the IC50: it is the concentration at which inhibition is half-maximal. The low end stands for greater potency in that assay, the high end for weaker potency in that assay. As a reminder, the inhibition is the percentage by which the read-out fell short of the control. A lower inhibition goes with little suppression.
